Assay results taken from ChEMBL document CHEMBL3871268, “Chalcogen containing heterocyclic scaffolds: New hybrids with antitumoral activity” (Eur J Med Chem, 2016).

How the values were obtained:
[1] = Cytotoxicity against human MCF7 cells assessed as reduction in cell viability measured after 72 hrs by MTT assay; assay type: functional; conditions: MCF7, 72 h
[2] = Cytotoxicity against human PC3 cells assessed as reduction in cell viability measured after 72 hrs by MTT assay; assay type: functional; conditions: PC-3, 72 h
[3] = Cytotoxicity against human 184B5 cells assessed as reduction in cell viability measured after 72 hrs by MTT assay; assay type: toxicity, cell-based; conditions: for GI50 at 72 h: 184B5 cells; for LC50 / TGI: 184b5, 72 h
MCF7 = assay: Selectivity index, ratio of GI50 for human 184B5 cells to GI50 for human MCF7 cells; assay type: functional

Compound | GI50 [1] | LC50 [1] | TGI [1] | GI50 [2] | LC50 (concentration lethal to 50% of cells) [2] | TGI [2] | GI50 at 72 h [3] | LC50 [3] | TGI [3] | RatioGI50 (MCF7)
Sc1ccc2ccccc2n1 | > 100 µM | > 100 µM | > 100 µM | 85.3 µM | > 100 µM | > 100 µM |  |  |  | 
SCc1cc2c(cc1Br)OCO2 | 3.2 µM | > 100 µM | > 100 µM | 87.5 µM | > 100 µM | > 100 µM | > 100 µM | > 100 µM | > 100 µM | >37
[SeH]Cc1c2ccccc2nc2ccccc12 | 39.1 µM | > 100 µM | > 100 µM | 83.2 µM | > 100 µM | > 100 µM |  |  |  | 
N#C[Se]Cc1cc2c(cc1Br)OCO2 | 66.9 µM | > 100 µM | > 100 µM | 24 µM | > 100 µM | 45.7 µM |  |  |  | 
N#C[Se]Cc1c2ccccc2nc2ccccc12 | 40.1 µM | 44.5 µM | 67.6 µM | 16.6 µM | 40 µM | 28.3 µM |  |  |  | 
Cc1noc(C)c1C[Se]C#N | 2.2 µM | 24.5 µM | 8.3 µM | 5.6 µM | 17.6 µM | 10.3 µM | 2 µM | 22.8 µM | 4 µM | <1
[SeH]c1nc2ccccc2s1 | > 50 µM | > 50 µM | > 50 µM | > 50 µM | > 50 µM | > 50 µM |  |  |  | 
O=C1c2ccccc2C(=O)N1CS | > 100 µM | > 100 µM | > 100 µM | 74.7 µM | > 100 µM | > 100 µM |  |  |  | 
CSc1ccnc(SC)n1 | > 100 µM | > 100 µM | > 100 µM | 77.5 µM | > 100 µM | > 100 µM |  |  |  | 
N#C[Se]CN1C(=O)c2ccccc2C1=O | 15.4 µM | 93.4 µM | 56.1 µM | 11.2 µM | 56.7 µM | 32.1 µM |  |  |  | 
N#CSc1nc2ccccc2s1 | 40.1 µM | 87.7 µM | 67.6 µM | 42 µM | 85.5 µM | 66.3 µM |  |  |  | 
CSc1nc2ccccc2s1 |  |  |  | 39.6 µM |  |  |  |  |  | 
Sc1nc2ccccc2s1 [2-MERCAPTOBENZOTHIAZOLE] | > 100 µM |  | > 100 µM | 84.9 µM |  | > 100 µM |  |  |  | 
Sc1ccnc(S)n1 | > 100 µM | > 100 µM | > 100 µM | 82.5 µM | > 100 µM | > 100 µM |  |  |  | 
C[Se]c1ccc2ccccc2n1 | 21 µM | > 100 µM | > 100 µM | 83.6 µM | > 100 µM | > 100 µM |  |  |  | 
N#CSc1nccc(Cl)n1 | 35 µM | > 100 µM | > 100 µM | > 100 µM | > 100 µM | > 100 µM |  |  |  | 
CSc1ccc2ccccc2n1 | > 100 µM | > 100 µM | > 100 µM | 87 µM | > 100 µM | > 100 µM | > 100 µM | > 100 µM | > 100 µM | 
N#CSCN1C(=O)c2ccccc2C1=O | 48.1 µM | > 100 µM | > 100 µM | > 100 µM | > 100 µM | > 100 µM |  |  |  | 
[SeH]Cc1cc2c(cc1Br)OCO2 | 22.2 µM | > 50 µM | > 50 µM | 34.6 µM | > 50 µM | > 50 µM |  |  |  | 
